How the values were obtained:
Format in all cases: in vivo
[1] = system: barnyardgrass (Echinochloa crus-galli); assay: Test B flooded paddy test, plant response rating 0-100; settings: Flood, 250 g ai/ha; scale 0 to 100 (0 no effect, 100 complete control); 13 to 15 days
How it was run: (§1)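 Flooded 3 cm over soil; compound into paddy water; depth kept constant. Greenhouse 13–15 d.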

[2] = system: ducksalad (Heteranthera limosa); assay: as above; settings: Flood, 250 g ai/ha; scale 0 to 100 (0 no effect, 100 complete control); 13 to 15 days
How it was run: as §1

rice (Oryza sativa) = assay: as above; settings: Flood, 250 g ai/ha; scale 0 to 100 (0 no effect, 100 complete control); 13 to 15 days
How it was run: as §1

[3] = system: sedge, umbrella (small-flower umbrella sedge, Cyperus difformis); assay: as above; settings: Flood, 250 g ai/ha; scale 0 to 100 (0 no effect, 100 complete control); 13 to 15 days
How it was run: as §1

[4] = system: barnyardgrass (Echinochloa crus-galli); assay: Test C pre-/postemergence greenhouse test, plant response rating 0-100
How it was run: (§2)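 Two application timings: preemergence onto seeded loam/sand soil and postemergence onto plants at the 1–4 leaf stage (2–18 cm) in peat/vermiculite medium. Formulation: non-phytotoxic solvent with surfactant. Read-out: visual control rating, 0–100, at 13–15 days after treatment.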

[5] = system: oilseed rape (Brassica napus); assay: as above
How it was run: as §2

[6] = system: waterhemp (common waterhemp, Amaranthus rudis); assay: as above
How it was run: as §2

[7] = system: arrowleaf sida (Sida rhombifolia); assay: Test E pre-/postemergence greenhouse test, plant response rating 0-100; settings: for Arrowleaf Sida plant response rating: Preemergence
How it was run: (§3)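 Each species was tested both preemergence, with chemicals sprayed onto freshly planted silt loam, and postemergence, on plants 2 to 18 cm tall in a peat-based medium; the vehicle was a non-phytotoxic solvent mixture with surfactant. After 14 to 21 days in the greenhouse, growth was visually compared with controls and scored 0–100.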

[8] = system: palmer pigweed (Amaranthus palmeri); assay: as above; settings: scale 0 to 100; for Pigweed, Palmer plant response rating: Preemergence
How it was run: as §3

[9] = system: waterhemp_RES2, (ALS & HPPD resistant common waterhemp, Amaranthus rudis); assay: Test E postemergence greenhouse test, plant response rating 0-100; settings: scale 0 to 100
How it was run: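 Visual ratings, 0 (no effect) to 100 (complete control), made versus controls 14–21 days after postemergence application in the greenhouse. Plants were at 1- to 4-leaf stage (2–18 cm) in peat moss/vermiculite potting medium.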

[10] = Postemergence, 125 g ai/ha, scale 0 to 100
[11] = Postemergence, 250 g ai/ha, scale 0 to 100
[12] = Postemergence, 500 g ai/ha, scale 0 to 100

Q: For `O=C(c1ccccc1)c1cn(CO)nc1-c1cc(Cl)cc(Cl)c1` [Compound 15, [3-(3,5-dichlorophenyl)-1-(hydroxymethyl)-1H-pyrazol-4-yl]phenylmethanone], which “Plant response rating, Barnyardgrass” value [1] is on record?
A: 0

Q: What about the “Plant response rating, Ducksalad” value [2] of the same compound?
A: 0

Q: What about the “Plant response rating, Rice” value (rice (Oryza sativa)) of the same compound?
A: 0

Q: And the “Plant response rating, Sedge, Umbrella” value [3]?
A: 0

Q: What about the “Plant response rating (0 to 100), Barnyardgrass” value ([4]; Postemergence, 62 g ai/ha) of the same compound?
A: 0

Q: What about the “Plant response rating, Barnyardgrass” value [4, 10] of the same compound?
A: 0

Q: What about the “Plant response rating, Barnyardgrass” value [4, 11] of the same compound?
A: 0

Q: What about the “Plant response rating, Barnyardgrass” value [4, 12] of the same compound?
A: 0

Q: What about the “Plant response rating, Barnyardgrass” value ([4]; Preemergence, 31 g ai/ha) of the same compound?
A: 0

Q: And the “Plant response rating, Barnyardgrass” value ([4]; Preemergence, 62 g ai/ha)?
A: 0

Q: And the “Plant response rating, Barnyardgrass” value ([4]; Preemergence, 125 g ai/ha)?
A: 0

Q: And the “Plant response rating, Barnyardgrass” value ([4]; Preemergence, 250 g ai/ha)?
A: 0

Q: What about the “Plant response rating (0 to 100), Oilseed Rape” value ([5]; Postemergence, 62 g ai/ha) of the same compound?
A: 60

Q: What about the “Plant response rating (0 to 100), Oilseed Rape” value ([5]; Postemergence, 125 g ai/ha) of the same compound?
A: 90

Q: And the “Plant response rating, Oilseed Rape” value [5, 11]?
A: 90

Q: What about the “Plant response rating, Oilseed Rape” value [5, 12] of the same compound?
A: 90

Q: And the “Plant response rating, Oilseed Rape” value ([5]; Preemergence, 31 g ai/ha)?
A: 0

Q: What about the “Plant response rating, Oilseed Rape” value ([5]; Preemergence, 62 g ai/ha) of the same compound?
A: 50

Q: What about the “Plant response rating, Oilseed Rape” value ([5]; Preemergence, 125 g ai/ha) of the same compound?
A: 50

Q: What about the “Plant response rating, Oilseed Rape” value ([5]; Preemergence, 250 g ai/ha) of the same compound?
A: 80

Q: What about the “Plant response rating (0 to 100), Waterhemp” value ([6]; Postemergence, 62 g ai/ha) of the same compound?
A: 65

Q: What about the “Plant response rating (0 to 100), Waterhemp” value ([6]; Postemergence, 125 g ai/ha) of the same compound?
A: 95

Q: And the “Plant response rating, Waterhemp” value [6, 11]?
A: 100

Q: And the “Plant response rating, Waterhemp” value [6, 12]?
A: 100

Q: And the “Plant response rating, Waterhemp” value ([6]; Preemergence, 62 g ai/ha)?
A: 100

Q: What about the “Plant response rating, Waterhemp” value ([6]; Preemergence, 125 g ai/ha) of the same compound?
A: 100

Q: And the “Plant response rating, Waterhemp” value ([6]; Preemergence, 250 g ai/ha)?
A: 100

Q: What about the “Arrowleaf Sida plant response rating” value ([7]; 31 g ai/ha, scale 0 to 100) of the same compound?
A: 25

Q: What about the “Arrowleaf Sida plant response rating” value ([7]; 62 g ai/ha, scale 0 to 100) of the same compound?
A: 30

Q: What about the “Arrowleaf Sida plant response rating” value ([7]; 125 g ai/ha, scale 0 to 100) of the same compound?
A: 90

Q: What about the “Arrowleaf Sida plant response rating” value ([7]; 250 g ai/ha, scale 0 to 100) of the same compound?
A: 100

Q: And the “Arrowleaf Sida plant response rating” value ([7]; 500 g ai/ha, scale 0 to 100)?
A: 98

Q: What about the pest or weed control at 31 g/ha ([7]; Sida rhombifolia, post-emergence, Postemergence, 31 g ai/ha, scale 0 to 100) of the same compound?
A: 98%

Q: And the pest or weed control at 62 g/ha ([7]; Sida rhombifolia, post-emergence, Postemergence, 62 g ai/ha, scale 0 to 100)?
A: 90%

Q: What about the pest or weed control at 125 g/ha ([7]; Sida rhombifolia, post-emergence, Postemergence, 125 g ai/ha, scale 0 to 100) of the same compound?
A: 98%

Q: What about the pest or weed control at 250 g/ha ([7]; Sida rhombifolia, post-emergence, Postemergence, 250 g ai/ha, scale 0 to 100) of the same compound?
A: 98%

Q: And the pest or weed control at 500 g/ha ([7]; Sida rhombifolia, post-emergence, Postemergence, 500 g ai/ha, scale 0 to 100 (0 no effect, 100 complete control))?
A: 98%

Q: What about the pest or weed control at 31 g/ha ([8]; Amaranthus palmeri, post-emergence, Postemergence, 31 g ai/ha) of the same compound?
A: 35%

Q: And the pest or weed control at 62 g/ha ([8]; Amaranthus palmeri, post-emergence, Postemergence, 62 g ai/ha)?
A: 75%

Q: What about the pest or weed control at 125 g/ha ([8]; Amaranthus palmeri, post-emergence, Postemergence, 125 g ai/ha) of the same compound?
A: 75%

Q: And the pest or weed control at 250 g/ha ([8]; Amaranthus palmeri, post-emergence, Postemergence, 250 g ai/ha)?
A: 98%

Q: What about the pest or weed control at 500 g/ha ([8]; Amaranthus palmeri, post-emergence, Postemergence, 500 g ai/ha) of the same compound?
A: 100%

Q: And the “Pigweed, Palmer plant response rating” value ([8]; 31 g ai/ha)?
A: 0

Q: And the “Pigweed, Palmer plant response rating” value ([8]; 62 g ai/ha)?
A: 0

Q: And the “Pigweed, Palmer plant response rating” value ([8]; 125 g ai/ha)?
A: 0

Q: And the “Pigweed, Palmer plant response rating” value ([8]; 250 g ai/ha)?
A: 65

Q: What about the “Pigweed, Palmer plant response rating” value ([8]; 500 g ai/ha) of the same compound?
A: 100

Q: What about the “Plant response rating, Waterhemp_RES2” value ([9]; 31 g ai/ha) of the same compound?
A: 60

Q: What about the “Plant response rating, Waterhemp_RES2” value ([9]; 62 g ai/ha) of the same compound?
A: 70

Q: What about the “Plant response rating, Waterhemp_RES2” value ([9]; 125 g ai/ha) of the same compound?
A: 75

Q: What about the “Plant response rating, Waterhemp_RES2” value ([9]; 250 g ai/ha) of the same compound?
A: 90

Q: What about the “Plant response rating, Waterhemp_RES2” value ([9]; 500 g ai/ha) of the same compound?
A: 98

Q: `O=C(c1ccccc1)c1cn(S(=O)(=O)CCl)nc1-c1cc(Cl)cc(Cl)c1` [Compound 1] was tested. Which “Plant response rating, Barnyardgrass” value [1] did it give?
A: 0

Q: What about the “Plant response rating, Ducksalad” value [2] of the same compound?
A: 0

Q: What about the “Plant response rating, Rice” value (rice (Oryza sativa)) of the same compound?
A: 0

Q: And the “Plant response rating, Sedge, Umbrella” value [3]?
A: 0

Q: And the “Plant response rating (0 to 100), Barnyardgrass” value ([4]; Postemergence, 31 g ai/ha)?
A: 0

Q: What about the “Plant response rating (0 to 100), Barnyardgrass” value ([4]; Postemergence, 62 g ai/ha) of the same compound?
A: 0

Q: What about the “Plant response rating, Barnyardgrass” value [4, 10] of the same compound?
A: 0

Q: And the “Plant response rating, Barnyardgrass” value [4, 11]?
A: 0

Q: And the “Plant response rating (0 to 100), Oilseed Rape” value ([5]; Postemergence, 62 g ai/ha)?
A: 50

Q: And the “Plant response rating (0 to 100), Oilseed Rape” value ([5]; Postemergence, 125 g ai/ha)?
A: 80

Q: And the “Plant response rating, Oilseed Rape” value [5, 11]?
A: 95

Q: And the “Plant response rating (0 to 100), Waterhemp” value ([6]; Postemergence, 62 g ai/ha)?
A: 90

Q: And the “Plant response rating (0 to 100), Waterhemp” value ([6]; Postemergence, 125 g ai/ha)?
A: 90

Q: What about the “Plant response rating, Waterhemp” value [6, 11] of the same compound?
A: 98

Q: What about the “Plant response rating, Arrowleaf Sida” value ([7]; Postemergence, 31 g ai/ha, scale 0 to 100) of the same compound?
A: 80

Q: And the “Plant response rating, Arrowleaf Sida” value ([7]; Postemergence, 62 g ai/ha, scale 0 to 100)?
A: 90

Q: What about the “Plant response rating, Arrowleaf Sida” value [7, 10] of the same compound?
A: 95

Q: What about the “Plant response rating, Arrowleaf Sida” value [7, 11] of the same compound?
A: 95

Q: And the “Plant response rating, Arrowleaf Sida” value ([7]; Postemergence, 500 g ai/ha, scale 0 to 100 (0 no effect, 100 complete control))?
A: 98

Q: What about the “Arrowleaf Sida plant response rating” value ([7]; 31 g ai/ha, scale 0 to 100) of the same compound?
A: 20

Q: And the “Arrowleaf Sida plant response rating” value ([7]; 62 g ai/ha, scale 0 to 100)?
A: 25

Q: And the “Arrowleaf Sida plant response rating” value ([7]; 125 g ai/ha, scale 0 to 100)?
A: 25

Q: What about the “Arrowleaf Sida plant response rating” value ([7]; 250 g ai/ha, scale 0 to 100) of the same compound?
A: 20

Q: What about the “Arrowleaf Sida plant response rating” value ([7]; 500 g ai/ha, scale 0 to 100) of the same compound?
A: 75

Q: What about the “Plant response rating, Pigweed, Palmer” value ([8]; Postemergence, 31 g ai/ha) of the same compound?
A: 50

Q: What about the “Plant response rating, Pigweed, Palmer” value ([8]; Postemergence, 62 g ai/ha) of the same compound?
A: 25

Q: And the “Plant response rating, Pigweed, Palmer” value ([8]; Postemergence, 125 g ai/ha)?
A: 75

Q: What about the “Plant response rating, Pigweed, Palmer” value ([8]; Postemergence, 250 g ai/ha) of the same compound?
A: 70

Q: And the “Plant response rating, Pigweed, Palmer” value ([8]; Postemergence, 500 g ai/ha)?
A: 98

Q: What about the “Pigweed, Palmer plant response rating” value ([8]; 31 g ai/ha) of the same compound?
A: 0

Q: And the “Pigweed, Palmer plant response rating” value ([8]; 62 g ai/ha)?
A: 20

Q: And the “Pigweed, Palmer plant response rating” value ([8]; 125 g ai/ha)?
A: 25

Q: What about the “Pigweed, Palmer plant response rating” value ([8]; 250 g ai/ha) of the same compound?
A: 20

Q: What about the “Pigweed, Palmer plant response rating” value ([8]; 500 g ai/ha) of the same compound?
A: 100

Q: What about the “Plant response rating, Waterhemp_RES2” value ([9]; 31 g ai/ha) of the same compound?
A: 40

Q: What about the “Plant response rating, Waterhemp_RES2” value ([9]; 125 g ai/ha) of the same compound?
A: 35

Q: And the “Plant response rating, Waterhemp_RES2” value ([9]; 250 g ai/ha)?
A: 98

Q: What about the “Plant response rating, Waterhemp_RES2” value ([9]; 500 g ai/ha) of the same compound?
A: 98
